Source: publication PMC9481151, “Discovery of new symmetrical and asymmetrical nitrile-containing 1,4-dihydropyridine derivatives as dual kinases and P-glycoprotein inhibitors: synthesis, in vitro assays, and in silico studies” (Journal of Enzyme Inhibition and Medicinal Chemistry, 2022)

How the values were obtained:
SF-295 = experiment: NCI single dose (10 µM) SRB screen; assay type: cell-based, human; details: CNS cancer, 48 h
HCC-2998 = experiment: NCI single dose (10 µM) SRB screen; assay type: cell-based, human; details: colon cancer, 48 h
Escherichia coli = experiment: Agar well diffusion method; details: relative to ciprofloxacin
DU-145 = experiment: NCI single dose (10 µM) SRB screen; assay type: cell-based, human; details: prostate cancer, 48 h
SN12C = experiment: NCI single dose (10 µM) SRB screen; assay type: cell-based, human; details: renal cancer, 48 h
MOLT-4 = experiment: NCI single dose (10 µM) SRB screen; assay type: cell-based, human; details: leukaemia, 48 h
MCF7 = experiment: NCI single dose (10 µM) SRB screen; assay type: cell-based, human; details: breast cancer, 48 h
HS578T = experiment: NCI single dose (10 µM) SRB screen; assay type: cell-based, human; details: breast cancer, 48 h
NCI-H23 = experiment: NCI single dose (10 µM) SRB screen; assay type: cell-based, human; details: non-small cell lung cancer, 48 h
BT-549 = experiment: NCI single dose (10 µM) SRB screen; assay type: cell-based, human; details: breast cancer, 48 h
EKVX = experiment: NCI single dose (10 µM) SRB screen; assay type: cell-based, human; details: non-small cell lung cancer, 48 h
Aspergillus flavus = experiment: Agar well diffusion method; details: relative to clotrimazole
SK-OV-3 = experiment: NCI single dose (10 µM) SRB screen; assay type: cell-based, human; details: ovarian cancer, 48 h
ACHN = experiment: NCI single dose (10 µM) SRB screen; assay type: cell-based, human; details: renal cancer, 48 h
HT29 = experiment: NCI single dose (10 µM) SRB screen; assay type: cell-based, human; details: colon cancer, 48 h
SK-MEL-28 = experiment: NCI single dose (10 µM) SRB screen; assay type: cell-based, human; details: melanoma, 48 h
NCI-H522 = experiment: NCI single dose (10 µM) SRB screen; assay type: cell-based, human; details: non-small cell lung cancer, 48 h
HL-60(TB) = experiment: NCI single dose (10 µM) SRB screen; assay type: cell-based, human; details: leukaemia, 48 h
PC-3 = experiment: NCI single dose (10 µM) SRB screen; assay type: cell-based, human; details: prostate cancer, 48 h
MALME-3M = experiment: NCI single dose (10 µM) SRB screen; assay type: cell-based, human; details: melanoma, 48 h
NCI-H322M = experiment: NCI single dose (10 µM) SRB screen; assay type: cell-based; details: non-small cell lung cancer, 48 h
SK-MEL-5 = experiment: NCI single dose (10 µM) SRB screen; assay type: cell-based, human; details: melanoma, 48 h
UO-31 = experiment: NCI single dose (10 µM) SRB screen; assay type: cell-based, human; details: renal cancer, 48 h
HCT-15 = experiment: NCI single dose (10 µM) SRB screen; assay type: cell-based, human; details: colon cancer, 48 h
SW-620 = experiment: NCI single dose (10 µM) SRB screen; assay type: cell-based, human; details: colon cancer, 48 h
U251 = experiment: NCI single dose (10 µM) SRB screen; assay type: cell-based, human; details: CNS cancer, 48 h
SF-539 = experiment: NCI single dose (10 µM) SRB screen; assay type: cell-based, human; details: CNS cancer, 48 h
RPMI-8226 = experiment: NCI single dose (10 µM) SRB screen; assay type: cell-based, human; details: leukaemia, 48 h
RXF 393 = experiment: NCI single dose (10 µM) SRB screen; assay type: cell-based, human; details: renal cancer, 48 h
UACC-257 = experiment: NCI single dose (10 µM) SRB screen; assay type: cell-based, human; details: melanoma, 48 h
OVCAR-5 = experiment: NCI single dose (10 µM) SRB screen; assay type: cell-based, human; details: ovarian cancer, 48 h
OVCAR-3 = experiment: NCI single dose (10 µM) SRB screen; assay type: cell-based, human; details: ovarian cancer, 48 h
MDA-MB-468 = experiment: NCI single dose (10 µM) SRB screen; assay type: cell-based, human; details: breast cancer, 48 h
OVCAR-4 = experiment: NCI single dose (10 µM) SRB screen; assay type: cell-based, human; details: ovarian cancer, 48 h
Candida albicans = experiment: Agar well diffusion method; details: relative to clotrimazole
SK-MEL-2 = experiment: NCI single dose (10 µM) SRB screen; assay type: cell-based, human; details: melanoma, 48 h
OVCAR-8 = experiment: NCI single dose (10 µM) SRB screen; assay type: cell-based, human; details: ovarian cancer, 48 h
LOX IMVI = experiment: NCI single dose (10 µM) SRB screen; assay type: cell-based, human; details: melanoma, 48 h
HCT-116 = experiment: NCI single dose (10 µM) SRB screen; assay type: cell-based, human; details: colon cancer, 48 h
NCI-H460 = experiment: NCI single dose (10 µM) SRB screen; assay type: cell-based, human; details: non-small cell lung cancer, 48 h
COLO 205 = experiment: NCI single dose (10 µM) SRB screen; assay type: cell-based, human; details: colon cancer, 48 h
UACC-62 = experiment: NCI single dose (10 µM) SRB screen; assay type: cell-based, human; details: melanoma, 48 h
NCI 60 cancer cell lines = experiment: NCI single dose (10 µM) SRB screen, mean over panel; assay type: cell-based, human; details: mean over 60 cell lines, 48 h
A549/ATCC = experiment: NCI single dose (10 µM) SRB screen; assay type: cell-based, human; details: non-small cell lung cancer, 48 h
MDA-MB-231 = experiment: NCI single dose (10 µM) SRB screen; assay type: cell-based, human; details: breast cancer, 48 h
K-562 = experiment: NCI single dose (10 µM) SRB screen; assay type: cell-based, human; details: leukaemia, 48 h
HOP-92 = experiment: NCI single dose (10 µM) SRB screen; assay type: cell-based, human; details: non-small cell lung cancer, 48 h
NCI/ADR-RES = experiment: NCI single dose (10 µM) SRB screen; assay type: cell-based, human; details: ovarian cancer, 48 h
T-47D = experiment: NCI single dose (10 µM) SRB screen; assay type: cell-based, human; details: breast cancer, 48 h
SNB-75 = experiment: NCI single dose (10 µM) SRB screen; assay type: cell-based, human; details: CNS cancer, 48 h
SNB-19 = experiment: NCI single dose (10 µM) SRB screen; assay type: cell-based, human; details: CNS cancer, 48 h
Staphylococcus aureus = experiment: Agar well diffusion method
CAKI-1 = experiment: NCI single dose (10 µM) SRB screen; assay type: cell-based, human; details: renal cancer, 48 h
NCI-H226 = experiment: NCI single dose (10 µM) SRB screen; assay type: cell-based, human; details: non-small cell lung cancer, 48 h
TK-10 = experiment: NCI single dose (10 µM) SRB screen; assay type: cell-based, human; details: renal cancer, 48 h
SR = experiment: NCI single dose (10 µM) SRB screen; assay type: cell-based, human; details: leukaemia, 48 h
IGROV1 = experiment: NCI single dose (10 µM) SRB screen; assay type: cell-based, human; details: ovarian cancer, 48 h
CCRF-CEM = experiment: NCI single dose (10 µM) SRB screen; assay type: cell-based, human; details: leukaemia, 48 h
MDA-MB-435 = experiment: NCI single dose (10 µM) SRB screen; assay type: cell-based, human; details: melanoma, 48 h
SF-268 = experiment: NCI single dose (10 µM) SRB screen; assay type: cell-based, human; details: CNS cancer, 48 h
KM12 = experiment: NCI single dose (10 µM) SRB screen; assay type: cell-based, human; details: colon cancer, 48 h
A498 = experiment: NCI single dose (10 µM) SRB screen; assay type: cell-based, human; details: renal cancer, 48 h
HOP-62 = experiment: NCI single dose (10 µM) SRB screen; assay type: cell-based, human; details: non-small cell lung cancer, 48 h
Bacillus subtilis = experiment: Agar well diffusion method; details: relative to ciprofloxacin
786-0 = experiment: NCI single dose (10 µM) SRB screen; assay type: cell-based, human; details: renal cancer, 48 h
M14 = experiment: NCI single dose (10 µM) SRB screen; assay type: cell-based, human; details: melanoma, 48 h
Pseudomonas aeruginosa = experiment: Agar well diffusion method; details: relative to ciprofloxacin

Structure (SMILES): CCCC1=C(C(=O)OCC)C(c2cccc(C#N)c2)C(C(=O)OC)=C(C)N1 (racemic) [Compound 2f, (±)-3-Ethyl 5-methyl 4-(3-cyanophenyl)-6-methyl-2-propyl-1,4-dihydropyridine-3,5-dicarboxylate]
- GI% SF-295 (SF-295): – (Only GI% ≥ 10 are shown)
- GI% HCC-2998 (HCC-2998): – (Only GI% ≥ 10 are shown)
- % activity index, E. coli (Escherichia coli): – (Values below 25 are of limited value and not shown as they refer either to inactive or non-diffusing compounds)
- GI% DU-145 (DU-145): – (Only GI% ≥ 10 are shown)
- GI% SN12C (SN12C): – (Only GI% ≥ 10 are shown)
- GI% MOLT-4 (MOLT-4): 14%
- GI% MCF7 (MCF7): – (Only GI% ≥ 10 are shown)
- GI% HS578T (HS578T): – (Only GI% ≥ 10 are shown)
- GI% NCI-H23 (NCI-H23): – (Only GI% ≥ 10 are shown)
- GI% BT-549 (BT-549): – (Only GI% ≥ 10 are shown)
- GI% EKVX (EKVX): – (Only GI% ≥ 10 are shown)
- % activity index, A. flavus (Aspergillus flavus): – (Values below 25 are of limited value and not shown as they refer either to inactive or non-diffusing compounds)
- GI% SK-OV-3 (SK-OV-3): – (Only GI% ≥ 10 are shown)
- GI% ACHN (ACHN): – (Only GI% ≥ 10 are shown)
- GI% HT29 (HT29): – (Only GI% ≥ 10 are shown)
- GI% SK-MEL-28 (SK-MEL-28): – (Only GI% ≥ 10 are shown)
- GI% NCI-H522 (NCI-H522): – (Only GI% ≥ 10 are shown)
- melting point: 121 to 122 °C
- GI% HL-60(TB) (HL-60(TB)): 11%
- GI% PC-3 (PC-3): 23%
- GI% MALME-3M (MALME-3M): – (Only GI% ≥ 10 are shown)
- GI% NCI-H322M (NCI-H322M): – (Only GI% ≥ 10 are shown)
- GI% SK-MEL-5 (SK-MEL-5): – (Only GI% ≥ 10 are shown)
- GI% UO-31 (UO-31): 13%
- GI% HCT-15 (HCT-15): – (Only GI% ≥ 10 are shown)
- GI% SW-620 (SW-620): – (Only GI% ≥ 10 are shown)
- GI% U251 (U251): – (Only GI% ≥ 10 are shown)
- GI% SF-539 (SF-539): – (Only GI% ≥ 10 are shown)
- GI% RPMI-8226 (RPMI-8226): 12%
- GI% RXF 393 (RXF 393): – (Only GI% ≥ 10 are shown)
- GI% UACC-257 (UACC-257): – (Only GI% ≥ 10 are shown)
- GI% OVCAR-5 (OVCAR-5): – (Only GI% ≥ 10 are shown)
- GI% OVCAR-3 (OVCAR-3): – (Only GI% ≥ 10 are shown)
- GI% MDA-MB-468 (MDA-MB-468): – (Only GI% ≥ 10 are shown)
- GI% OVCAR-4 (OVCAR-4): – (Only GI% ≥ 10 are shown)
- % activity index, C. albicans (Candida albicans): – (Values below 25 are of limited value and not shown as they refer either to inactive or non-diffusing compounds)
- GI% SK-MEL-2 (SK-MEL-2): – (Only GI% ≥ 10 are shown)
- GI% OVCAR-8 (OVCAR-8): – (Only GI% ≥ 10 are shown)
- GI% LOX IMVI (LOX IMVI): – (Only GI% ≥ 10 are shown)
- GI% HCT-116 (HCT-116): 11%
- GI% NCI-H460 (NCI-H460): – (Only GI% ≥ 10 are shown)
- GI% COLO 205 (COLO 205): – (Only GI% ≥ 10 are shown)
- GI% UACC-62 (UACC-62): 21%
- Mean GI% (NCI 60 cancer cell lines): 1%
- GI% A549/ATCC (A549/ATCC): – (Only GI% ≥ 10 are shown)
- GI% MDA-MB-231 (MDA-MB-231): – (Only GI% ≥ 10 are shown)
- GI% K-562 (K-562): – (Only GI% ≥ 10 are shown)
- GI% HOP-92 (HOP-92): – (Only GI% ≥ 10 are shown)
- GI% NCI/ADR-RES (NCI/ADR-RES): – (Only GI% ≥ 10 are shown)
- GI% T-47D (T-47D): – (Only GI% ≥ 10 are shown)
- GI% SNB-75 (SNB-75): 37%
- GI% SNB-19 (SNB-19): – (Only GI% ≥ 10 are shown)
- zone of inhibition at 1000 µg/mL (Staphylococcus aureus; Staphylococcus aureus, 24 h, read-out: Diameter of inhibition zone, S. aureus): 6 mm
- % activity index, S. aureus (Staphylococcus aureus; relative to ciprofloxacin): 25%
- GI% CAKI-1 (CAKI-1): 18%
- GI% NCI-H226 (NCI-H226): – (Only GI% ≥ 10 are shown)
- GI% TK-10 (TK-10): – (Only GI% ≥ 10 are shown)
- GI% SR (SR): – (Only GI% ≥ 10 are shown)
- GI% IGROV1 (IGROV1): – (Only GI% ≥ 10 are shown)
- GI% CCRF-CEM (CCRF-CEM): – (Only GI% ≥ 10 are shown)
- GI% MDA-MB-435 (MDA-MB-435): – (Only GI% ≥ 10 are shown)
- GI% SF-268 (SF-268): – (Only GI% ≥ 10 are shown)
- GI% KM12 (KM12): – (Only GI% ≥ 10 are shown)
- GI% A498 (A498): – (Only GI% ≥ 10 are shown)
- GI% HOP-62 (HOP-62): – (Only GI% ≥ 10 are shown)
- % activity index, B. subtilis (Bacillus subtilis): – (Values below 25 are of limited value and not shown as they refer either to inactive or non-diffusing compounds)
- GI% 786-0 (786-0): – (Only GI% ≥ 10 are shown)
- GI% M14 (M14): – (Only GI% ≥ 10 are shown)
- % activity index, P. aeruginosa (Pseudomonas aeruginosa): – (Values below 25 are of limited value and not shown as they refer either to inactive or non-diffusing compounds)
